Assay results as given in US7166725B2, “Benzo[d]isoxazol-3-ol DAAO inhibitors” (Sepracor Inc., priority 2003, dated 2007).
pIC50: −log10 of the molar value.

Molecular target: T1, D-Serine's binding site on the NMDA receptor (Rattus norvegicus, UniProt P35439)
T1 construct: membranes prepared from rat cerebral cortex; from tissue; host or cells: rat cerebral cortex membranes
Assay: NMDA receptor affinity, [3H]MDL105,519 radioligand binding, rat cerebral cortex membranes
Details: tested at 100 μM, read-out: inhibition of specific [3H]MDL105,519 binding
Description: To measure the affinity of the compounds reported herein for D-Serine's binding site on the NMDA receptor (also known as the “Glycine site” or the “strychnine-insensitive glycine site”), a radioligand-binding assay was performed with membranes prepared from rat cerebral cortex. The radioactive ligand was [3H]MDL105,519. The amount of radioactivity displaced by the compounds was assessed by scintillation counting. Non-specific binding is accounted for in the presence of 1 mM Glycine. Affinities are calculated from the values of % inhibition of specific [3H]MDL105,519 binding by the test compounds.

Point of comparison: `O=C(O)c1cc2ccccc2[nH]1` [INDOLE-2-CARBOXYLIC ACID, reference compound], inhibition at 100 µM 77%. Against it:
- Oc1noc2cc(Cl)ccc12 [drawing 47] — lower, < 10%

Molecular target: Purified pig DAAO (Sus scrofa, UniProt P00371)
Sequence (P00371 whole entry): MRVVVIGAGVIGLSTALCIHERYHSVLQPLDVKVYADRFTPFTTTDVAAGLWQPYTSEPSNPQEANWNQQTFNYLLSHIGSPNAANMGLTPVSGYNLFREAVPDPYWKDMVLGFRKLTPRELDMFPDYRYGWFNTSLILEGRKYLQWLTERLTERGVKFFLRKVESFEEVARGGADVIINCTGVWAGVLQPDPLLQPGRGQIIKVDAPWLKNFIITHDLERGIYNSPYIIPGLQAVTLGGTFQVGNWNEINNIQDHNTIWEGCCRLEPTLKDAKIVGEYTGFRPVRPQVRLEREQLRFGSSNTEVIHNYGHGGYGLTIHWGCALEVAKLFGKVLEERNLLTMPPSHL
Assay: In vitro measurements of DAAO activity (Amplex Red H2O2 fluorescence; alternative phenylglycine absorbance assay)
Assay type: biochemical
Details: read-out: Inhibition of DAAO, IC50
Description: Purified pig DAAO, added to a buffered mixture of 50 mM D-Serine produces H202 in stoichiometric amounts for each D-Serine molecule oxidized. H202 production can be monitored with a commercially available dye Amplex Red, which in the presence of H202, is converted to the fluorescent product resorufin. For each described inhibitor, the fluorescence was also measured during additions of 80 μM H202 in the absence of DAAO, to control for artifactual inhibition of the dye conversion, and to quantify the amount of H202 produced. In an alternative assay of DAAO activity, the purified pig DAAO is added to buffered mixture of 1 mM phenylglycine in the presence of compounds. The activity of DAAO is monitored spectrophotometrically by its enzymatic conversion of phenylglycine to benzoylformic acid with optical absorption at 252 nm.
Inhibitors of DAAO's enzymatic cycle were serially diluted to reduce the level of inhibition. The parameters of a non-linear equation were adjusted to fit the resulting series of inhibition levels to extrapolate the concentration of compound where 50% inhibition is achieved (IC50). These numbers are averaged for the number (n) of independent measurements (on separate days) of the inhibition.

Going from `Oc1noc2cccc(F)c12` to `Oc1cccc2onc(O)c12`, the pIC50 falls from greater than 5.00 to less than 4.00. The first is the more potent here.

`COc1cccc2onc(O)c12` and `COc1cccc2c(O)noc12` cannot be ordered by pIC50: greater than 4.00 for the first, greater than 4.00 for the second.

`Oc1noc2cc(Br)c(Br)cc12` and `Oc1noc2cc(Cl)c(Br)cc12` cannot be ordered by pIC50: greater than 7.00 for the first, greater than 7.00 for the second.

`Oc1noc2cc(Cl)c(Cl)cc12` and `Oc1noc2cc(Br)c(Cl)cc12` cannot be ordered by pIC50: greater than 7.00 for the first, greater than 7.00 for the second.

`Cc1cc2onc(O)c2cc1Br` and `Cc1cc2onc(O)c2cc1Cl` cannot be ordered by pIC50: greater than 7.00 for the first, greater than 7.00 for the second.

`Oc1noc2cc(F)ccc12` and `Oc1noc2ccc(F)cc12` cannot be ordered by pIC50: greater than 6.00 for the first, greater than 6.00 for the second.

Compared with `Oc1ccc2c(O)noc2c1`, `Oc1ccc2onc(O)c2c1` is lower in pIC50: greater than 5.00 for the first, less than 4.00 for the second. The first is the more potent here.

`COc1ccc2c(O)noc2c1` and `COc1ccc2onc(O)c2c1` cannot be ordered by pIC50: greater than 5.00 for the first, greater than 5.00 for the second.

First: Oc1noc2c(Cl)cccc12
Second: Oc1noc2c(F)cccc12
The pIC50 of the first is lower: less than 4.00 for the first, greater than 4.00 for the second. The second is the more potent here.

Compared with `Oc1noc2c(O)cccc12`, `Cc1cccc2c(O)noc12` is lower in pIC50: greater than 4.00 for the first, less than 4.00 for the second.

`Oc1noc2ccc(Cl)cc12` and `Oc1noc2cc(Cl)ccc12` [drawing 38] cannot be ordered by pIC50: greater than 6.00 for the first, greater than 7.00 for the second.

`Cc1cc2onc(O)c2cc1I` and `Oc1noc2ccc(I)cc12` cannot be ordered by pIC50: greater than 7.00 for the first, greater than 5.00 for the second.

`Cc1ccc2onc(O)c2c1` and `Cc1ccc2c(O)noc2c1` [drawing 22] cannot be ordered by pIC50: greater than 5.00 for the first, greater than 6.00 for the second.

`Oc1noc2cc(Br)ccc12` and `Oc1noc2ccc(Br)cc12` cannot be ordered by pIC50: greater than 6.00 for the first, greater than 6.00 for the second.

`Oc1noc2ccc(CCc3ccccc3)cc12` and `Oc1noc2ccc(OCc3ccccc3)cc12` cannot be ordered by pIC50: greater than 4.00 for the first, greater than 5.00 for the second.

`N#Cc1ccc2onc(O)c2c1` and `Oc1noc2ccccc12` cannot be ordered by pIC50: greater than 4.00 for the first, greater than 6.00 for the second.

`O=C(Nc1ccc2c(O)noc2c1)OCc1ccccc1` and `O=C(Nc1ccc2onc(O)c2c1)OCc1ccccc1` cannot be ordered by pIC50: less than 4.00 for the first, less than 4.00 for the second.

First: Oc1noc2cc(OCc3ccccc3)ccc12
Second: O=C(O)c1cc2ccccc2[nH]1 [INDOLE-2-CARBOXYLIC ACID, reference compound]
The pIC50 of the first is lower: less than 4.00 for the first, greater than 5.00 for the second.

Molecule `O=C(O)c1ccc[nH]1` [PYRROLE-2-CARBOXYLIC ACID, reference compound] has a pIC50 greater than 5.00.

Tested on: not listed separately
Assay: Rat brain uptake, left carotid artery perfusion
Assay type: in vivo
Details: 30 seconds perfusion in phosphate buffered saline pH 7.4; N of 4 rats
Source text: Experiments that evaluate the rat brain penetration of test compounds use a perfusion system where the left carotid artery is cannulated and the branch arteries are tied off. The test compound plus internal controls are perfused for 30 seconds into the left hemisphere in phosphate buffered saline at pH 7.4. The internal controls are atenolol (with low brain uptake) and antipyrine (with high brain uptake). After a 30 second washout with perfusate, the brain is removed surgically. The left hemisphere is homogenized; test compounds (plus internal controls) are extracted from brain homogenate, and analyzed using LC/MS/MS to determine the concentration of test compound and internal controls in the brain.

Point of comparison: `Oc1noc2cc(Cl)ccc12` [drawing 49], “Rat Brain Uptake Rate” value 162 pmol/g brain/sec. Against it:
- Cc1ccc2c(O)noc2c1 [drawing 48] — higher, 199 pmol/g brain/sec
